# Data published in patent publication US20110152267A1, “Compositions and Methods for Treating Hyperproliferative Disorders” (Texas Tech University System, priority 2009, published 2011).
# Assays:
# Assay type in all cases: cell-based, human
# [1] = test system: PANC-1 pancreatic adenocarcinoma cell line; test: DIMSCAN cytotoxicity, fenretinide + L-threo-sphinganines 3:1 (Example B18)
# Protocol: (§1) Cytotoxicity Assay—Once again, cytotoxicity is determined using the DIMSCAN assay system (R. Proffitt et al., Cytometry 24, 204-213 (1996); T. Frgala et al., Mol Cancer Ther. 6:886-97, 2007). The system employs digital imaging microscopy to quantify viable cells, which selectively accumulate fluorescein diacetate to become brightly fluorescent. The system is capable of measuring cytotoxicity over a 4-5 log dynamic range by quenching the residual fluorescence of dead and dying cells with eosin Y and quantifying the total fluorescence of viable cells using digital thresholding. Measured fluorescence is directly proportionate to the number of viable cells. A comparison of the total fluorescence of a drug-treated cell population to the fluorescence of a similar number of untreated cells yields a survival fraction. In brief, 2000 to 10,000 cells/well (depending on size and growth rates) are replicate plated into 60 wells of a 96-well tissue culture plate in 0.1 mL of whole medium and allowed to attach overnight. Drug(s) are then added in 0.05 mL of whole medium to the final concentrations indicated. Drugs (fenretinide, and various chain length L-threo-sphinganines) were tested both as single agents and in a 3:1 ratio of fenretinide:sphinganine. C18-L-threo-sphinganine, or “safingol,” was also tested and results shown for reference. There are 12 wells treated per drug concentration. Twelve wells receive drug vehicle-only to the appropriate final concentration and serve as controls for the plate. Cells are incubated for 96 hours at 37° C. in ambient air with 5% CO2. Fluorescein diacetate is then added to each well in 0.05 mL media to a final concentration of 8 microgram/mL. Cells are incubated for a further 15 minutes at 37° C. and 0.03 mL of 0.5% eosin Y is added to each well. Total fluorescence of viable cells is then measured by digital imaging microscopy. Results were graphed as the ratio of the fluoresecence of drug-treated wells to non-drug treated control wells (i.e., Survival Fraction). All tests were performed at least twice. Representative results are shown.
# (§2) The Combination Index (CI) is a term to describe mathematical modeling of the pharmacologic effects on cytotoxicity (cell death) of two drugs in combination based. Cytotoxic “synergy” is defined as a cell death affect which is greater than would be expected from a simple product of the single agent cytotoxicities alone (i.e. an “additive” effect). By Chou-Talalay analysis, a CI<0.9 on a Fraction Affected (“Fa”, i.e. fraction of cells killed) indicates synergy, with smaller numbers indicating greater synergy; a CI of 0.9-1.1 signifies an additive or near-additive effect; and a CI>1.1 means the drug combination is antagonistic.
# Fenretinide and L-threo-sphinganines tested in human pancreatic adenocarcinoma (pancreas cancer) cell line, PANC-1.
# [2] = test system: T98G Glioblastoma multiforme cell line; test: DIMSCAN cytotoxicity, fenretinide + L-threo-sphinganines 3:1 (Example B6); details: 96 h
# Protocol: as §1, §2
# Fenretinide and L-threo-sphinganines tested in human Glioblastoma multiforme (brain cancer) cell line, T98G.
# [3] = test system: PC-3 prostate adenocarcinoma cell line; test: DIMSCAN cytotoxicity, fenretinide + L-threo-sphinganines 3:1 (Example B17)
# Protocol: as §1, §2
# Fenretinide and L-threo-sphinganines tested in human prostate adenocarcinoma (prostate cancer) cell line, PC-3.
# [4] = test system: U-266 Multiple Myeloma cell line; test: DIMSCAN cytotoxicity, fenretinide + L-threo-sphinganines 3:1 (Example B3); details: 96 h
# Protocol: as §1, §2
# Fenretinide and L-threo-sphinganines tested in human Multiple Myeloma (a cancer of the blood and bone marrow) cell line, U-266.
# [5] = test system: SJ-GBM2 Glioblastoma multiforme cell line; test: DIMSCAN cytotoxicity, fenretinide + L-threo-sphinganines 3:1 (Example B7); design: key to CI (Combination Index): Chou-Talalay CI: <0.9 synergy, 0.9-1.1 additive, >1.1 antagonism; details: 96 h
# Protocol: as §1, §2
# Fenretinide and L-threo-sphinganines tested in human Glioblastoma multiforme (brain cancer) cell line, SJ-GBM2.
# [6] = test system: U-118 Glioblastoma cell line; test: DIMSCAN cytotoxicity, fenretinide + L-threo-sphinganines 3:1 (Example B5); design: key to CI (Combination Index): CI<0.9 synergy, 0.9-1.1 additive, >1.1 antagonistic; details: U-118 MG, 96 h
# Protocol: as §1, §2
# Fenretinide and L-threo-sphinganines tested in human Glioblastoma (brain cancer) cell line, U-118.
# [7] = test system: HT-29 colorectal adenocarcinoma cell line; test: DIMSCAN cytotoxicity, fenretinide + L-threo-sphinganines 3:1 (Example B10); details: 96 h
# Protocol: as §1, §2
# Fenretinide and L-threo-sphinganines tested in human colorectal adenocarcinoma (colon cancer) cell line, HT-29.
# [8] = test system: A-2058 melanoma cell line; test: DIMSCAN cytotoxicity, fenretinide + L-threo-sphinganines 3:1 (Example B11); details: 96 h
# Protocol: as §1, §2
# Fenretinide and L-threo-sphinganines tested in human melanoma (skin cancer) cell line, A-2058.
# [9] = 4-HPR 1.5 μM + L-threo-sphinganine 0.5 μM
# [10] = 4-HPR 3 μM + L-threo-sphinganine 1 μM
# [11] = 4-HPR 6 μM + L-threo-sphinganine 2 μM
# [12] = 4-HPR 9 μM + L-threo-sphinganine 3 μM
structure (smiles),measurement,setting,value
CCCCCCCCCCCCCCCCCC[C@H](O)[C@@H](N)CO [C21],CI,[1]; [9],2.5
same,Fa,[1]; [9],0.111
same,CI,[1]; [10],2.9
same,Fa,[1]; [10],0.239
same,CI,[1]; [11],1.6
same,Fa,[1]; [11],0.784
same,CI,[1]; [12],0.4
same,Fa,[1]; [12],0.994
same,CI (Combination Index),[2]; [9],1.2
same,Fa (fraction affected),[2]; [9],0.574
same,CI (Combination Index),[2]; [10],1.0
same,Fa (fraction affected),[2]; [10],0.805
same,CI (Combination Index),[2]; [11],1.8
same,Fa (fraction affected),[2]; [11],0.832
same,CI (Combination Index),[2]; [12],0.1
same,Fa (fraction affected),[2]; [12],0.999
same,CI,[3]; [9],1.7
same,Fa,[3]; [9],0.215
same,CI,[3]; [10],1.4
same,Fa,[3]; [10],0.350
same,CI,[3]; [11],1.6
same,Fa,[3]; [11],0.479
same,CI,[3]; [12],0.9
same,Fa,[3]; [12],0.738
same,CI (Combination Index),[4]; [9],1.4
same,Fa (fraction affected),[4]; [9],0.225
same,CI (Combination Index),[4]; [10],1.5
same,Fa (fraction affected),[4]; [10],0.658
same,CI (Combination Index),[4]; [11],0.6
same,Fa (fraction affected),[4]; [11],0.996
same,CI (Combination Index),[4]; [12],>0.1
same,Fa (fraction affected),[4]; [12],1
same,CI (Combination Index),[5]; [9],1.4
same,Fa (fraction affected),[5]; [9],0.131
same,CI (Combination Index),[5]; [10],1.9
same,Fa (fraction affected),[5]; [10],0.470
same,CI (Combination Index),[5]; [11],2.1
same,Fa (fraction affected),[5]; [11],0.946
same,CI (Combination Index),[5]; [12],2.0
same,Fa (fraction affected),[5]; [12],0.996
same,CI (Combination Index),[6]; [9],1.3
same,Fa (fraction affected),[6]; [9],0.588
same,CI (Combination Index),[6]; [10],1.5
same,Fa (fraction affected),[6]; [10],0.836
same,CI (Combination Index),[6]; [11],0.6
same,Fa (fraction affected),[6]; [11],0.995
same,CI (Combination Index),[6]; [12],0.5
same,Fa (fraction affected),[6]; [12],0.999
same,CI (Combination Index),[7]; [9],1.2
same,Fa (fraction affected),[7]; [9],0.149
same,CI (Combination Index),[7]; [10],1.2
same,Fa (fraction affected),[7]; [10],0.630
same,CI (Combination Index),[7]; [11],1.8
same,Fa (fraction affected),[7]; [11],0.857
same,CI (Combination Index),[7]; [12],2.3
same,Fa (fraction affected),[7]; [12],0.918
same,CI (Combination Index),[8]; [9],0.7
same,Fa (fraction affected),[8]; [9],0.016
same,CI (Combination Index),[8]; [10],1.4
same,Fa (fraction affected),[8]; [10],0.016
same,CI (Combination Index),[8]; [11],1.9
same,Fa (fraction affected),[8]; [11],0.333
same,CI (Combination Index),[8]; [12],1.9
same,Fa (fraction affected),[8]; [12],0.955
"CCCCCCCCCCCCCC[C@H](O)[C@@H](N)CO [C17, (2S,3S)-2-amino-1,3-heptadecanediol]",CI,[1]; [9],1.5
same,Fa,[1]; [9],0.171
same,CI,[1]; [10],1.7
same,Fa,[1]; [10],0.311
same,CI,[1]; [11],0.9
same,Fa,[1]; [11],0.714
same,CI,[1]; [12],0.1
same,Fa,[1]; [12],0.990
same,CI (Combination Index),[2]; [9],1.7
same,Fa (fraction affected),[2]; [9],0.447
same,CI (Combination Index),[2]; [10],0.3
same,Fa (fraction affected),[2]; [10],0.887
same,CI (Combination Index),[2]; [11],0.3
same,Fa (fraction affected),[2]; [11],0.944
same,CI (Combination Index),[2]; [12],0.2
same,Fa (fraction affected),[2]; [12],0.980
same,CI,[3]; [9],0.7
same,Fa,[3]; [9],0.214
same,CI,[3]; [10],0.9
same,Fa,[3]; [10],0.338
same,CI,[3]; [11],0.8
same,Fa,[3]; [11],0.623
same,CI,[3]; [12],0.5
same,Fa,[3]; [12],0.862
same,CI (Combination Index),[4]; [9],1.3
same,Fa (fraction affected),[4]; [9],0.134
same,CI (Combination Index),[4]; [10],1.5
same,Fa (fraction affected),[4]; [10],0.35
same,CI (Combination Index),[4]; [11],0.9
same,Fa (fraction affected),[4]; [11],0.901
same,CI (Combination Index),[4]; [12],0.4
same,Fa (fraction affected),[4]; [12],0.991
same,CI (Combination Index),[5]; [9],0.5
same,Fa (fraction affected),[5]; [9],0.188
same,CI (Combination Index),[5]; [10],0.5
same,Fa (fraction affected),[5]; [10],0.796
same,CI (Combination Index),[5]; [11],0.7
same,Fa (fraction affected),[5]; [11],0.962
same,CI (Combination Index),[5]; [12],0.7
same,Fa (fraction affected),[5]; [12],0.998
same,CI (Combination Index),[6]; [9],1.7
same,Fa (fraction affected),[6]; [9],0.519
same,CI (Combination Index),[6]; [10],1.8
same,Fa (fraction affected),[6]; [10],0.791
same,CI (Combination Index),[6]; [11],1.5
same,Fa (fraction affected),[6]; [11],0.951
same,CI (Combination Index),[6]; [12],0.7
same,Fa (fraction affected),[6]; [12],0.995
same,CI (Combination Index),[7]; [9],1.1
same,Fa (fraction affected),[7]; [9],0.112
same,CI (Combination Index),[7]; [10],0.8
same,Fa (fraction affected),[7]; [10],0.661
same,CI (Combination Index),[7]; [11],0.6
same,Fa (fraction affected),[7]; [11],0.974
same,CI (Combination Index),[7]; [12],0.5
same,Fa (fraction affected),[7]; [12],0.993
same,CI (Combination Index),[8]; [9],0.9
same,Fa (fraction affected),[8]; [9],0.211
same,CI (Combination Index),[8]; [10],1.2
same,Fa (fraction affected),[8]; [10],0.359
same,CI (Combination Index),[8]; [11],1.4
same,Fa (fraction affected),[8]; [11],0.664
same,CI (Combination Index),[8]; [12],1.5
same,Fa (fraction affected),[8]; [12],0.849
